The record followed here is patent US20080194567A1, “Combination Treatment for Enhancing Diuresis” (priority 2005, published 2008).

What all share (assay type): in vivo, human
Experiment [1] in a line: Experiment 2: case report, levosimendan infusion added to vasodilators and diuretics in a person with dyspnea and lung oedema. As to the method: Person was admitted to hospital due to severely worsened dyspnea. They suffered from coronary artery disease with no possibilities for re-vascularisation. They had ejection fraction below 35%, markedly elevated end-diastolic pressure and moderate mitral regurgitation. […] They were treated with positive pressure ventilation, vasodilators and diuretics for three days without positive response. Levosimendan fusion with a bolus and continuous infusion rate up to 0.2 microg/kg/min was added. The infusion lasted 24 hours. Before the infusion their daily urinary volumes varied between 2150 and 2730 ml. On the day levosimendan was started their urinary volume was 2650 and increased to 3855, 2890 and 2790 ml during the next consecutive days, and their fluid balance was 8500 ml negative during the four next days after the infusion of levosimendan.

Experiment [2] is described as follows: Experiment 1: case report, levosimendan infusion added to diuretics in a person with congestive heart failure. The settings on record: for daily urine volume: 850-1850 ml before start. The text has this: Person was admitted to hospital due to congestive heart failure. In cardiac echocardiography they had ejection fraction below 30%, moderate regurgitation of mitral valve and dilative cardiomyopathy. According to coronary angiography invasive procedures such as angioplasty or coronary by-pass surgery were not possible. During the first four days at hospital they received diuretics (furosemide and spironolactone) as well as lisinopril, bisoprolol, antibiotics and allopurinol without any positive response. Their dyspnea worsened and peripheral oedema increased. Levosimendan infusion was added with the dose of 0.05 microg/kg/min and was increased to 0.1 microg/kg/min after two hours, the infusion lasted 24 hours, no bolus infusion was used due to low blood pressure. During the next day patient told that they felt better and dyspnea and periphera oedema decreased. […] The daily urine volumes varied between 850 and 1850 ml before the start of levosimendan, and increased up to 6350 ml on the day they received levosimendan, and were 3800 ml on the day after levosimendan infusion, after that they went down to normal.

Experiment [3] can be described thus: Experiment 3: case report, levosimendan infusion added to diuretics in a person with dilating cardiomyopathy. As to the method:
Person was admitted to hospital due to worsened dyspnea. They suffered from idiopathic dilating cardiomyopathy and their left ventricular ejection fraction was 26%. They were treated with diuretics (furosemide and spironolactone) as well as perindopril, bisoprolol and digitalis without positive response for one week. Levosimendan infusion of 0.05 microg/kg/min was added. During the next 24 hours they urinated 3500 ml and during the next five days their weight decreased from 66.5 kg to 62.5 kg, although it had not changed at all before the infusion of levosimendan.

For the molecule `C[C@@H]1CC(=O)NN=C1c1ccc(NN=C(C#N)C#N)cc1` [levosimendan, (−)-enantiomer of [[4-(1,4,5,6-tetrahydro-4-methyl-6-oxo-3-pyridazinyl)phenyl]hydrazono]propanedinitrile], the “fluid balance (negative)” value in experiment [1] (during the four next days after the infusion of levosimendan) amounted to 8500 mL. The daily urinary volume in experiment [1] (first consecutive day after levosimendan start, 2150-2730 ml before infusion) came out at 3855 mL; in experiment [1] (on the day levosimendan was started (bolus plus infusion up to 0.2 microg/kg/min, 24 h) on top of diuretics, 2150-2730 ml before infusion), 2650 mL; in experiment [1] (second consecutive day after levosimendan start), 2890 mL; in experiment [1] (third consecutive day after levosimendan start), 2790 mL. Further, the “urinary volumes (in words)” value in experiment [2] (after the levosimendan infusion was added to diuretics) is reported as “increased markedly”. Further, in experiment [2] (during the next day after the levosimendan infusion was added), the “dyspnea and peripheral oedema” value is “decreased”. The daily urine volume in experiment [2] (on the day after levosimendan infusion) came to 3800 mL; in experiment [2] (on the day they received levosimendan (0.05 then 0.1 microg/kg/min, 24 h infusion) on top of furosemide and spironolactone) it was 6350 mL. Also, the body weight in experiment [3] (after the next five days, decreased from 66.5 kg, no change before the infusion) was determined as 62.5 kg. The molecule also yielded a urine volume in experiment [3] (during the next 24 hours after levosimendan 0.05 microg/kg/min was added to furosemide and spironolactone) of 3500 mL.
